The record followed here is patent US20240059677A1, “SUBSTITUTED PYRIMIDINE DERIVATIVES AS NICOTINIC ACETYLCHOLINESTERASE RECEPTOR ALPHA 6 MODULATOR” (priority 2020, published 2024).

pIC50: −log10 of the molar value.

The target of the experiment is T1, human nAChRα6-α3 chimera, in addition to β2 and β3^V273S subunits (Homo sapiens, UniProt P32297+Q15825).
T1 construct: expressed in transfected cells
T1 sequence (Q05901 25-458 V273S): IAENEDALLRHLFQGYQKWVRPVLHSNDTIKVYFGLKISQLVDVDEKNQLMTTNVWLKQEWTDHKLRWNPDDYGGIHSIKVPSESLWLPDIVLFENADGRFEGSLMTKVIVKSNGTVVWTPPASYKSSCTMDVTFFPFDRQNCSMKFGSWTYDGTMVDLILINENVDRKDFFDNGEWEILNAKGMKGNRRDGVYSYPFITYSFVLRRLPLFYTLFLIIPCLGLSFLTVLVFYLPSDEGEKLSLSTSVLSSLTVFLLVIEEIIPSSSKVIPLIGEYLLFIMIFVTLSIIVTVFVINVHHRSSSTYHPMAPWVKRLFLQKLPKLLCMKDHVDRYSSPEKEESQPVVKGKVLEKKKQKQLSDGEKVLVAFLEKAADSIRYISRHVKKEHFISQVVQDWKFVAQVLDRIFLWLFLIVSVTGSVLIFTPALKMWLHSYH
T1 sequence (P17787 26-502, stated change not applied, further chain): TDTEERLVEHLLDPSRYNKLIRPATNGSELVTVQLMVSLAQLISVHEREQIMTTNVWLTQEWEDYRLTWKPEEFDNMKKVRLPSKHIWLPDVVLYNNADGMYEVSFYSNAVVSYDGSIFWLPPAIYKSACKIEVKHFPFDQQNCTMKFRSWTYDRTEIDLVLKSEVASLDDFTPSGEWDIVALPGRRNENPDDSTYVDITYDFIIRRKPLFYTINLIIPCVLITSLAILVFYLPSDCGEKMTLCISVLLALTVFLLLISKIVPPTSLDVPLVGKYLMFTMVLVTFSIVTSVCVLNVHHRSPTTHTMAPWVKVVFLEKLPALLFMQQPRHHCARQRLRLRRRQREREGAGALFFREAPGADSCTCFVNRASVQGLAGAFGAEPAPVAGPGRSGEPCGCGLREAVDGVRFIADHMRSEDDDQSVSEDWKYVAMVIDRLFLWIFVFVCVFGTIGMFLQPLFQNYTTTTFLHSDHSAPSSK
T1 sequence (Q15825+P32297 fused with the stated changes): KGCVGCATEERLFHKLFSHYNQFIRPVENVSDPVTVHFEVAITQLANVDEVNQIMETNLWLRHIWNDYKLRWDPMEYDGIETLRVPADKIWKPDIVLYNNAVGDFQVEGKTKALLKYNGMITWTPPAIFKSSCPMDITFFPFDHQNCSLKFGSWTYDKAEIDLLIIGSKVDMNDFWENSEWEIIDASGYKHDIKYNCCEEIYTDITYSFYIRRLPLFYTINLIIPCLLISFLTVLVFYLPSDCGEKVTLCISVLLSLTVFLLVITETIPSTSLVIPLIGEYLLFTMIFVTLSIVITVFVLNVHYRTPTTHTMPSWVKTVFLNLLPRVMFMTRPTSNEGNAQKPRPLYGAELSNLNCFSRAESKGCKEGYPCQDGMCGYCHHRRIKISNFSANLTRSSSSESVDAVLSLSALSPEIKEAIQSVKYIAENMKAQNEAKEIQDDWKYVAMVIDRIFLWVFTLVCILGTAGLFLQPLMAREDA
The experiment can be described thus: fluorescence-based calcium assay: inhibition of nicotine stimulated nAChRα6 activity (FLIPR). To be noted: HEK cell line stably expressing the receptor; 10 min pre-incubation, nicotine EC80; 10-point curve, duplicate wells; read-out: IC50. A digest of the protocol: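 HEK cells stably expressing the human α6-α3 chimera with β2 and β3^V273S were loaded with calcium dye at 30° C. Compounds were pre-incubated for 10 min before nicotine at EC80, and the fluorescence change was read on a FLIPR. Ten-point half-log concentration-response, duplicate wells.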
Turning to `Cc1nc(NCC2NCCC2(F)F)ncc1-c1ccc(F)cc1F` (single isomer, unassigned) [Example 83b, 5-(2,4-difluorophenyl)-N-((3,3-difluoropyrrolidin-2-yl)methyl)-4-methyl-pyrimidin-2-amine], the pIC50 (as a rule, −log10 of the IC50, conventionally taken in molar units) was 6.34.
As to `CC(C)N1CCCC(Nc2ncc(-c3ccc(F)cc3)cn2)C1` (stereo not drawn) [Example 6, 5-(4-fluorophenyl)-N-(1-isopropylpiperidin-3-yl)pyrimidin-2-amine], the pIC50 is 6.91.
With `Cc1nc(NC2CCCN(C)C2)ncc1-c1ccc(F)cc1F` (single isomer, unassigned) [Example 77b, 5-(2,4-difluorophenyl)-4-methyl-N-(1-methylpiperidin-3-yl)pyrimidin-2-amine] the figure was 7.03.
Take `Cc1nc(NCC[C@@H]2CCCN2C)ncc1-c1ccc(C(F)(F)F)cc1F` [Example 106b, (S)-5-(2-fluoro-4-(trifluoromethyl)phenyl)-4-methyl-N-(2-(1-methylpyrrolidin-2-yl)ethyl)pyrimidin-2-amine]: the negative-log IC50 (pIC50) was 6.86.
Take `Cc1nc(NC2CC(N(C)C)C2)ncc1-c1ccc(F)cc1F` (single isomer, unassigned) [Example 68a, N^1-(5-(2,4-difluorophenyl)-4-methyl-pyrimidin-2-yl)-N^3,N^3-dimethylcyclobutane-1,3-diamine]: the pIC50 was 7.11.
For the compound `COc1ccc(-c2cnc(NCC3CCCO3)nc2C)c(Cl)c1` (stereo not drawn) [Example 47, 5-(2-chloro-4-methoxyphenyl)-4-methyl-N-((tetrahydrofuran-2-yl)methyl) pyrimidin-2-amine], the pIC50 is 5.90.
With `Cc1nc(NC2CCN(C(C)C)CC2)ncc1-c1ccc(F)cc1F` [Example 67, 5-(2,4-difluorophenyl)-N-(1-isopropylpiperidin-4-yl)-4-methyl-pyrimidin-2-amine], the pIC50 was 7.18.
`Cc1nc(NC2CCN3CCCC23)ncc1-c1ccc(OC(F)(F)F)cc1F` (single isomer, unassigned) [Example 97a, N-(5-(2-fluoro-4-(trifluoromethoxy)phenyl)-4-methyl-pyrimidin-2-yl)hexahydro-1H-pyrrolizin-1-amine]: the pIC50 was 6.74.
With `Cc1nc(N[C@H]2CN3CCC2CC3)ncc1-c1ccc(C(F)(F)F)cc1F` [Example 119, (R)—N-(5-(2-fluoro-4-(trifluoromethyl)phenyl)-4-methyl-pyrimidin-2-yl) quinuclidin-3-amine] the figure was 6.81; with `Cc1nc(NC2CCN(C(C)C)CC2)ncc1-c1ccc(OC(F)(F)F)cc1F` [Example 88, 5-(2-fluoro-4-(trifluoromethoxy)phenyl)-N-(1-isopropylpiperidin-4-yl)-4-methyl-pyrimidin-2-amine], 6.83; with `COc1ccc(-c2cnc(NCC3COCCN3C)nc2C)c(Cl)c1` (stereo not drawn) [Example 62, 5-(2-chloro-4-methoxyphenyl)-4-methyl-N-((4-methylmorpholin-3-yl)methyl)pyrimidin-2-amine], 7.19.
Regarding `CN1CCCC1CNc1ncc(-c2ccc(F)cc2F)c(C#N)n1` (stereo not drawn) [Example 19, 5-(2,4-difluorophenyl)-2-(((1-methylpyrrolidin-2-yl)methyl)amino) pyrimidine-4-carbonitrile], the pIC50 is 6.67.
`COc1ccc(-c2cnc(NCC3CCCCN3C(C)C)nc2C)c(F)c1` (stereo not drawn) [Example 50, 5-(2-fluoro-4-methoxyphenyl)-N-((1-isopropylpiperidin-2-yl)methyl)-4-methyl-pyrimidin-2-amine]: the pIC50 is 6.99.
`COc1ccc(-c2cnc(NCC3CCCN(C(C)C)C3)nc2C)c(F)c1` (stereo not drawn) [Example 49, 5-(2-fluoro-4-methoxyphenyl)-N-((1-isopropylpiperidin-3-yl)methyl)-4-methyl-pyrimidin-2-amine]: the pIC50 was 7.16.
Regarding `COc1ccc(-c2nnc(NCC3CCCN3C)nc2C)c(F)c1` (single isomer, unassigned) [Example 54b, 6-(2-fluoro-4-methoxyphenyl)-5-methyl-N-((1-methylpyrrolidin-2-yl)methyl)-1,2,4-triazin-3-amine], the negative-log IC50 (pIC50) is 6.35.
Regarding `Cc1nc(NCC2CCN(C)CC2)ncc1-c1ccc(C(F)(F)F)cc1F` [Example 101, 5-(2-fluoro-4-(trifluoromethyl)phenyl)-4-methyl-N-((1-methyl-4-piperidinyl)methyl)pyrimidin-2-amine], the pIC50 is 6.96.
With `Cc1nc(NC2CCCN(C(C)C)C2)ncc1-c1ccc(F)cc1` (stereo not drawn) [Example 9, 5-(4-fluorophenyl)-N-(1-isopropylpiperidin-3-yl)-4-methyl-pyrimidin-2-amine] the figure was 6.58; with `COc1ccc(-c2cnc(NC3CCOCC3)nc2C)c(F)c1` [Example 45, 5-(2-fluoro-4-methoxyphenyl)-4-methyl-N-(tetrahydro-2H-pyran-4-yl) pyrimidin-2-amine], 5.88; with `Cc1nc(NC[C@@H]2CCCN2C)ncc1-c1ccc(F)cc1C(F)(F)F` [Example 92b, (S)-5-(4-fluoro-2-(trifluoromethyl)phenyl)-4-methyl-N-((1-methylpyrrolidin-2-yl)methyl)pyrimidin-2-amine], 7.14.
Consider `Cc1nc(NC2CCCC(N(C)C)C2)ncc1-c1ccc(F)cc1F` (single isomer, unassigned) [Example 55a, N^1-(5-(2,4-difluorophenyl)-4-methyl-pyrimidin-2-yl)-N^3,N^3-dimethylcyclohexane-1,3-diamine], for which the pIC50 was 7.01.
With `COc1ccc(-c2cnc(NC3CCC(N(C)C)C3)nc2C(F)(F)F)c(F)c1` (stereo not drawn) [Example 43, N^1-(5-(2-fluoro-4-methoxyphenyl)-4-(trifluoromethyl)pyrimidin-2-yl)-N^3,N^3-dimethylcyclopentane-1,3-diamine] the figure was 6.75; with `Cc1nc(NC[C@@H]2CCCN2C)ncc1-c1ccc(OC(F)(F)F)cc1F` [Example 93b, (S)-5-(2-fluoro-4-(trifluoromethoxy)phenyl)-4-methyl-N-((1-methylpyrrolidin-2-yl)methyl)pyrimidin-2-amine], 7.96.
Regarding `COc1ccc(-c2cnc(NCC3CCN(C)C3)nc2C2CC2)c(F)c1` (stereo not drawn) [Example 37, 4-cyclopropyl-5-(2-fluoro-4-methoxyphenyl)-N-((1-methylpyrrolidin-3-yl)methyl)pyrimidin-2-amine], the negative-log IC50 (pIC50) was 6.99.
Consider `COc1ccc(-c2cnc(NCC3CCCN3C)nc2C)c(F)c1` (single isomer, unassigned) [Example 28b, 5-(2-fluoro-4-methoxyphenyl)-4-methyl-N-((1-methylpyrrolidin-2-yl)methyl)pyrimidin-2-amine], for which the pIC50 was 8.00.
With `Cc1nc(NC[C@@H]2CCCN2C)ncc1-c1ccc(F)cc1F` [Example 24a, (S)-5-(2,4-difluorophenyl)-4-methyl-N-((1-methylpyrrolidin-2-yl)methyl) pyrimidin-2-amine] the figure was 7.21; with `Cc1nc(NC2CCCN(CC(F)(F)F)C2)ncc1-c1ccc(F)cc1F` (stereo not drawn) [Example 60, 5-(2,4-difluorophenyl)-4-methyl-N-(1-(2,2,2-trifluoroethyl)piperidin-3-yl) pyrimidin-2-amine], 5.93; with `Cc1nc(NC(C)[C@H]2CCCN2)ncc1-c1ccc(C(F)(F)F)cc1F` (single isomer, unassigned) [Example 129b, 5-(2-fluoro-4-(trifluoromethyl)phenyl)-4-methyl-N-((1*S)-1-((2R)-pyrrolidin-2-yl)ethyl)pyrimidin-2-amine], 6.98.
For `Cc1nc(NC[C@H]2NCC[C@@H]2F)ncc1-c1ccc(C(F)(F)F)cc1F` (single isomer, unassigned) [Example 133b, 5-(2-fluoro-4-(trifluoromethyl)phenyl)-N-(((2*R,3*S)-3-fluoropyrrolidin-2-yl)methyl)-4-methyl-pyrimidin-2-amine], the pIC50 was 6.52.
Consider `Cc1nc(NCCC2CCCN2C)ncc1-c1ccc(F)cc1F` (stereo not drawn) [Example 14, 5-(2,4-difluorophenyl)-4-methyl-N-(2-(1-methylpyrrolidin-2-yl)ethyl) pyrimidin-2-amine], for which the negative logarithm of the IC50 (pIC50) was 7.38.
With `Cc1nc(NC[C@H]2CC(F)(F)CN2C)ncc1-c1ccc(F)cc1F` [Example 80, (R)—N-((4,4-difluoro-1-methylpyrrolidin-2-yl)methyl)-5-(2,4-difluorophenyl)-4-methyl-pyrimidin-2-amine], the negative logarithm of the IC50 (pIC50) is 5.83.
On to `Cc1nc(N[C@H]2CCN(C(C)C)C2)ncc1-c1ccc(C(F)(F)F)cc1F` [Example 100, (S)-5-(2-fluoro-4-(trifluoromethyl)phenyl)-N-(1-isopropylpyrrolidin-3-yl)-4-methyl-pyrimidin-2-amine], for which the pIC50 is 6.96.
Turning to `CN1CCCC1CCNc1ncc(-c2ccc(F)cc2)cn1` (stereo not drawn) [Example 3, 5-(4-fluorophenyl)-N-(2-(1-methylpyrrolidin-2-yl)ethyl)pyrimidin-2-amine], the negative-log IC50 (pIC50) is 6.48.
For `Cc1nc(NC2CCN3CCCC23)ncc1-c1ccc(OC(F)(F)F)cc1F` (single isomer, unassigned) [Example 97b, N-(5-(2-fluoro-4-(trifluoromethoxy)phenyl)-4-methyl-pyrimidin-2-yl)hexahydro-1H-pyrrolizin-1-amine] the value was 6.82; for `Cc1nc(N[C@@H]2CN3CCC2CC3)ncc1-c1ccc(C(F)(F)F)cc1F` [Example 120, (S)—N-(5-(2-fluoro-4-(trifluoromethyl)phenyl)-4-methyl-pyrimidin-2-yl) quinuclidin-3-amine], 6.75; for `COc1ccc(-c2cnc(NCC3CCCCN3C)nc2C#N)c(F)c1` (stereo not drawn) [Example 25, 5-(2-fluoro-4-methoxyphenyl)-2-(((1-methylpiperidin-2-yl)methyl)amino) pyrimidine-4-carbonitrile], 7.47.
On to `COc1ccc(F)c(-c2cnc(NCC3CCCCN3C)nc2C)c1` (stereo not drawn) [Example 33, 5-(2-fluoro-5-methoxyphenyl)-4-methyl-N-((1-methylpiperidin-2-yl)methyl) pyrimidin-2-amine], for which the negative logarithm of the IC50 (pIC50) was 7.35.
